Experimental data reported in patent US6900181B2, “Pharmaceutical composition” (Renovo Limited, priority 1995, dated 2005).

Legend:
wounds = test: Experimental work treating wounds with other sugars; type: in vivo; conditions: for effect on wound healing: compared with controls; for effect on scarring: in vivo
Description: Galactose-6-phosphate and glycerol-3-phosphate have no effect upon either wound healing or scarring.

[1] = tested on: linear full thickness incisions on the dorsal skin; test: Rat full thickness incisional wound healing and scarring model, intradermal injection to the wound margins; type: in vivo, Sprague Dawley rats; conditions: for effect on wound healing (histological analysis): 10, 20, 40 mM at wounding and daily for following seven days, compared with PBS controls; for immunocytochemical analysis (fibronectin staining, monocyte/macrophage profiles): vs PBS controls; for histological analysis: 40 days post wounding; for scarring / dermal architecture (histology): 80 days post wounding
Description: Adult male Sprague Dawley rats (200-250 g) were anaesthetised using equal parts halothane, nitrous oxide and oxygen. Four linear full thickness incisions, 1 cm in length to the depth of the panniculus carnosus were made on the dorsal skin, 1 cm from the midline and 5 and 8 cm from the base of the skull. The wounds were left unsutured to heal by secondary intention. Experimental treatments were administered by intradermal injection to the wound margins (50 μl down each wound margin). At selected time points animals were killed by chloroform overdose. Wounds were excised from the surrounding tissue and bisected. Half the wounds were rapidly frozen in OCT for cryosection and immunoctyochemistry and half fixed in formaldehyde for wax embedding and histology. Wax sections were routinely stained with haematoxylin and eosin, picrosirius red and Massons Lille trichrome, to display collagen fibre thickness, density and orientation to enable assessment of scar quality. […] A range of doses (10 mM, 20 mM and 40 mM) was studied for each sugar, with PBS (phosphate buffered saline) as a control. Treatments were administered at the time of wounding and each day for the following seven days. Two animals per dose were studied at each of the three time points (7, 40 and 80 days post wounding) for each compound. […]. […] Treatments were administered at the time of wounding and each day for the following two days. One animal per dose was studied at each of the two time points (7 and 80 days post wounding). Total n=4. […] Department of Pharmacy, University of Manchester. A single concentration (20 mM) of this compound was studied, with PBS as a control. The time of administration varied to the previous experiments. Animals were split into three groups and treated on day 0 alone, days 0, 2 and 4, or days 0 to 7 inclusive. Two animals per treatment regime were studied at each of the three time points (3, 7 and 80 days) Total n=18.

[2] = target: M6P/IGF II (insulin-like growth factor II) receptor (Homo sapiens, UniProt P11717); test: ELISA-type assay using purified M6P/IGF II receptor; type: binding; conditions: initial results; compared with M6P
M6P/IGF II (insulin-like growth factor II) receptor, sequence (P11717 41-2491): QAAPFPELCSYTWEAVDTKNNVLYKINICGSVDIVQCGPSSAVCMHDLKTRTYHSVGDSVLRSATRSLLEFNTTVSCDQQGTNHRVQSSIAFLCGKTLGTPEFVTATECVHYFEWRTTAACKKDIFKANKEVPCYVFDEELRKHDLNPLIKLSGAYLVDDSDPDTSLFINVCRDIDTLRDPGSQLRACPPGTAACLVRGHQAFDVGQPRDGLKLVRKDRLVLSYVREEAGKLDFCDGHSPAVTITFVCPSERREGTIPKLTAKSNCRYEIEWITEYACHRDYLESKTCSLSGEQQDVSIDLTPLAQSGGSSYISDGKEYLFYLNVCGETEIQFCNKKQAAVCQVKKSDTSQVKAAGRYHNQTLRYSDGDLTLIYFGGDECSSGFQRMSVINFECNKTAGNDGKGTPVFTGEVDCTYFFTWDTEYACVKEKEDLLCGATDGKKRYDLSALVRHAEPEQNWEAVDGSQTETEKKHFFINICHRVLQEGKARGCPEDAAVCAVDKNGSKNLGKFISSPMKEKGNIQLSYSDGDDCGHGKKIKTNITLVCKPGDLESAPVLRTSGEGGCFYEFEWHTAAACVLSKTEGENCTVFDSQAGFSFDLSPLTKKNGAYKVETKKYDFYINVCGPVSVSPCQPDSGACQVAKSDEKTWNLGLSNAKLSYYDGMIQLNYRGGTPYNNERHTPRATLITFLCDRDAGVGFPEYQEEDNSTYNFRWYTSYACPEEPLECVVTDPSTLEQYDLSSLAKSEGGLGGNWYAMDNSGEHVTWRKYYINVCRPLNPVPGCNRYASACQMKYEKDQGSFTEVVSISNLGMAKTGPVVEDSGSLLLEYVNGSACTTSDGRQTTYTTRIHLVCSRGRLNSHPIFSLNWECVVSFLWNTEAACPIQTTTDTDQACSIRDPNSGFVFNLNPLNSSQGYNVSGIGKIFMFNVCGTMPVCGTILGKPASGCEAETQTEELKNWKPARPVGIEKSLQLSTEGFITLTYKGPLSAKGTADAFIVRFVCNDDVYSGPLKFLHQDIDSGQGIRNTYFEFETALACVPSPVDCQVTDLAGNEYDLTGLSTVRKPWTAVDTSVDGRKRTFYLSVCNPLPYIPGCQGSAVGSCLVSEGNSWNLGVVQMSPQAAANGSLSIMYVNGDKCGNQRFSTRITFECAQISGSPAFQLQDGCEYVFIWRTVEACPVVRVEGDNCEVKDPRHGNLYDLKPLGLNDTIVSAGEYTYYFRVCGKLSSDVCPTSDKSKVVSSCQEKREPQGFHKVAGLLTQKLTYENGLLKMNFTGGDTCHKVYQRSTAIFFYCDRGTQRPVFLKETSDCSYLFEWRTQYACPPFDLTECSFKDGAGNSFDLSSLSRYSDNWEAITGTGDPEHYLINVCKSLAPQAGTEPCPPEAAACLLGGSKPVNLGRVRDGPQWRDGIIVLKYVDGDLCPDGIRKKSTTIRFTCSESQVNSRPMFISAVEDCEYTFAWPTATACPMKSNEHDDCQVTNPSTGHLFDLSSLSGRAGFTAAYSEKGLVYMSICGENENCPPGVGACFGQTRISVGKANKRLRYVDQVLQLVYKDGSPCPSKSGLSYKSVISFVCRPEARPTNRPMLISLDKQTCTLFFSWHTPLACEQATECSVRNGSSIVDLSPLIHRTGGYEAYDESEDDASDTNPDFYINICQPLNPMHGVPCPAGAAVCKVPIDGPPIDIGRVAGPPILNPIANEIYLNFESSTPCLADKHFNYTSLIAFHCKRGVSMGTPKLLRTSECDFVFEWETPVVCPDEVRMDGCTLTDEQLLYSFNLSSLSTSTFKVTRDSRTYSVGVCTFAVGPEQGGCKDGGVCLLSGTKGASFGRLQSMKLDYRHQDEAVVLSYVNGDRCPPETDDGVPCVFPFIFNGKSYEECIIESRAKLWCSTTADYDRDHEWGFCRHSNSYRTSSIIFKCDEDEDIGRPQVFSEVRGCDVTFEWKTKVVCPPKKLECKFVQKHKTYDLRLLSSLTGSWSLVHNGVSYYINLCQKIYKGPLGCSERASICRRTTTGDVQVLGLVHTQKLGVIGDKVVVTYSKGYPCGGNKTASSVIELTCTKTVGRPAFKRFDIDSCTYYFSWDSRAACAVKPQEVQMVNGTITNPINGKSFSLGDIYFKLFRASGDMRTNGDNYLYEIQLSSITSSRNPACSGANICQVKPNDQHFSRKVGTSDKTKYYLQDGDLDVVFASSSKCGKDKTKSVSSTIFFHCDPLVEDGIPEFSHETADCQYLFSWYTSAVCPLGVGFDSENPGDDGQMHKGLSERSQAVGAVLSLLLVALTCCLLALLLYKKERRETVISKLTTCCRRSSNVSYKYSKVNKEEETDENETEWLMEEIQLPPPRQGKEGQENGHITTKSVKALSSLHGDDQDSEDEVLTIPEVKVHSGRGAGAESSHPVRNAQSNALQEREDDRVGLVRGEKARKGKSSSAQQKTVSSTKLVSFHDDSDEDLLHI
Description: In addition to the animal studies an ELISA-type assay using purified M6P/IGF II (insulin-like growth factor II) receptor was developed to determine if these analogues of M6P bind to the M6P/IGF II receptor.

[3] = 7 days post wounding, 10, 20, 40 mM
[4] = 10, 20, 40 mM, F1P effect particularly at 40 mM

Compound | effect on wound healing (wounds) | effect on scarring (wounds) | effect on wound healing (histological analysis) ([1]; 7 days post wounding) | immunocytochemical analysis (fibronectin staining, monocyte/macrophage profiles) [1, 3] | histological analysis ([1]; 10, 20, 40 mM) | scarring / dermal architecture (histology) [1, 4] | also measured
O=C[C@H](O)[C@@H](O)[C@@H](O)[C@H](O)COP(=O)(O)O [Galactose-6-phosphate] | no effect | no effect |  |  |  |  | 
O=P(O)(O)O[C@H]1O[C@H](CO)[C@@H](O[C@H]2O[C@H](CO)[C@@H](O)[C@H](O)[C@H]2O)[C@H](O)[C@H]1O [Malt1P, maltose-1-phosphate] |  |  | neither F1P or Malt1P had any effect on wound healing | treated wounds resembled controls | inconsistent, with no clear trend | improve the dermal architecture very slightly | binding to the M6P/IGF II receptor [2]: does not bind
O=P(O)(O)OCC(O)CO (stereo not drawn) [glycerol-3-phosphate] | no effect | no effect |  |  |  |  | 
O=C(COP(=O)(O)O)[C@@H](O)[C@H](O)[C@H](O)CO [F1P, fructose-1-phosphate] |  |  | neither F1P or Malt1P had any effect on wound healing | treated wounds resembled controls | inconsistent, with no clear trend | reduce scarring more significantly | 
O=C[C@@H](O)[C@@H](O)[C@H](O)[C@H](O)COP(=O)(O)O [M6P, mannose-6-phosphate] |  |  |  |  |  |  | histological analysis of treated wounds vs PBS controls ([1]; 7 days post wounding, 10 or 20 mM, or 10 mM + 10 mM M6P, at wounding and each day for following two days): none of the treated wounds appeared different to PBS controls; scarring / dermal architecture (histology) ([1]; 10 or 20 mM, or 10 mM + 10 mM M6P, at wounding and each day for following two days, vs controls): improvement in scarring
